Patent publication US20070265306A1, “4-[(3-fluorophenoxy)phenylmethyl]piperidine methanesulfonate: uses, process of synthesis and pharmaceutical compositions” (priority 2006, published 2007)
Where a name gives a salt, the structure may show the parent alone. Read-outs that look alike come from different tables or passages of the source. One block for each compound: values may come before it.

How the values were obtained:
[1] = test system: dorsal raphe serotonergic neurones; conditions: in vivo; cited from earlier work
5-HTP-induced syndrome = conditions: mice, orally administered, acute; cited from earlier work
[2] = test system: apomorphine-induced hypothermia; conditions: mice, orally administered, acute; cited from earlier work
[3] = test system: immobility in the tail suspension test; conditions: mice, orally administered, acute; cited from earlier work
[4] = test system: immobility in the forced swimming test; conditions: mice, 30 mg/kg, p.o.; cited from earlier work
[5] = test system: immobility in the forced swimming test; conditions: rats, 30 mg/kg, p.o.; cited from earlier work
[6] = test system: hyperactivity induced by olfactory bulbectomy; conditions: rats, chronic administration 14 days, 30 mg kg(−1) day(−1), p. o.; cited from earlier work
social interaction time = conditions: rats, 14 days, 30 mg kg(−1) day(−1), p. o.; cited from earlier work
hygroscopicity = type: physicochemical
[7] = as mentioned in U.S. Pat. No. 6,518,284 B2 and EP1002794; cited from earlier work
[8] = studies of stability under forced conditions; type: physicochemical
Protocol: Additionally, the compound of formula I has shown excellent stability properties. The compound of formula I has remained stable for at least 6 months in studies of stability under forced conditions at 50 and 60° C., as well as at 40° C. and 75% humidity. This represents more than 2 years of stability under normal conditions.

Compound: Fc1cccc(O[C@H](c2ccccc2)C2CCNCC2)c1 [(S)-4-[(3-fluorophenoxy)phenylmethyl]piperidine]
ED50, decrease of electrical activity of dorsal raphe serotonergic neurones [1]: 0.5303 mg/kg | minimal effective dose (MED), potentiation of 5-HTP-induced syndrome (5-HTP-induced syndrome): 10 mg/kg | ED50, antagonism of hypothermia induced by a high dose of apomorphine [2]: 2 mg/kg | MED, reduction of immobility in the tail suspension test [3]: 10 mg/kg | immobility in the forced swimming test [4]: decreases the immobility | immobility in the forced swimming test [5]: decreases the immobility | hyperactivity induced by olfactory bulbectomy [6]: attenuates the hyperactivity | social interaction time (social interaction time): significantly increases

Compound: Fc1cccc(O[C@H](c2ccccc2)C2CCNCC2)c1 (as salt: fumaric acid salt) [(S)-4-[(3-fluorophenoxy)phenylmethyl]piperidine]
melting point: 105 to 108 °C

Compound: Fc1cccc(O[C@H](c2ccccc2)C2CCNCC2)c1.O=S(=O)(O)O [(S)-4-[(3-fluorophenoxy)phenylmethyl]piperidine sulphuric acid salt]
hygroscopicity (hygroscopicity): hygroscopic

Compound: Fc1cccc(OC(c2ccccc2)C2CCNCC2)c1 (racemic) [4-[(3-fluorophenoxy)phenylmethyl]piperidine]
solubility in water [7]: insoluble in water

time remained stable under forced conditions ([8]; 40° C. and 75% humidity): at least 6 months | time remained stable under forced conditions ([8]; 50° C.): at least 6 months | time remained stable under forced conditions ([8]; 60° C.): at least 6 months | stability under normal conditions ([8]; normal conditions, extrapolated from forced conditions): more than 2 years | hygroscopicity (hygroscopicity): not hygroscopic
Compound: CS(=O)(=O)O.Fc1cccc(OC(c2ccccc2)C2CCNCC2)c1 (stereo not drawn) [compound of formula I, 4-[(3-fluorophenoxy)phenylmethyl]piperidine methanesulfonic acid salt]

Compound: Cl.Fc1cccc(O[C@H](c2ccccc2)C2CCNCC2)c1 [(S)-4-[(3-fluorophenoxy)phenylmethyl]piperidine hydrochloric acid salt]
hygroscopicity (hygroscopicity): hygroscopic | melting point: 55 to 60 °C
